Data taken from ChEMBL document CHEMBL1151202, “New imidazole alkaloids from the Indonesian sponge Leucetta chagosensis” (J Nat Prod, 2004).
Active and inactive are the calls of the source. The calls are words filed in the database; no cut-off is given here.

Key:
Cladosporium herbarum = assay: Antifungal activity against Cladosporium herbarum DSM 63422 at 20 ug/disk after 24 hrs by agar plate diffusion assay; type: functional
Artemia salina = assay: Toxicity in Artemia salina at 20 ug/mL; type: organism-based; conditions: in vivo
HeLa = assay: Cytotoxicity against human HeLa cells at 10 ug/mL by MTT assay relative to control; type: functional
PC-12 = assay: Cytotoxicity against rat PC12 cells by MTT assay; type: functional, cell-based
L5178Y = assay: Cytotoxicity against mouse L5178Y cells at 10 ug/mL by MTT assay relative to control; type: functional

## COc1ccc(-c2c3cc(O)c(OC)cc3cc3c2[nH]c(=N)n3C)cc1 [KEALIININE A]
Cladosporium herbarum
  Activity: inactive
Artemia salina
  Activity: 50%

## COc1ccc(Cc2[nH]c(=N)n(C)c2Cc2cc(OC)c(O)c(OC)c2)cc1 [NAAMINE G]
HeLa
  Activity: 29%
PC-12
  Activity: inactive
L5178Y
  Activity: 46%
Cladosporium herbarum; DSM 63422, 24 h, read-out: IZ
  zone of inhibition at 20 µg/disc: 20 mm
Artemia salina
  Activity: 10%
